Laboratory results taken from patent US12252524B2, “GIP/GLP1 co-agonist compounds” (Eli Lilly and Company, priority 2018, dated 2025).
Numbered stars: 1 amine (or outer) side, 2 acyl side, 3 side chain; on linkers, the order of the positions; unused ones are H or OH. Square brackets hold non-standard residues; d marks the D form. Side chains are listed from the residue outwards. Peptide text beside a SMILES is read from it. * marks the point of attachment. C20 diacid = O=C(O)CCCCCCCCCCCCCCCCCCC(=O)*; αMePhe(2-F) = C[C@](N)(Cc1ccccc1F)C(=O)O; γGlu = O=C(O)[C@H](CCC(=O)[*:2])N[*:1]; 3Pal = N[C@@H](Cc1cccnc1)C(=O)O; αMeL = CC(C)C[C@](C)(N)C(=O)O; αMeP = C[C@@]1(C(=O)O)CCCN1; AEEA = NCCOCCOCC(=O)O; Aib = CC(C)(N)C(=O)O

Legend:
[1] = biological target: T1, gastric inhibitory peptide receptor (GIPR) (Homo sapiens, UniProt P48546); test: cAMP pharmacological functional assay in presence of casein, hGIPR; type: cell-based; conditions: HEK293 cells expressing hGIPR, 0.1% Casein, geometric mean; read-out: hGIPR cAMP Rel EC50 nM (SEM, n)
T1 sequence (P48546 22-466): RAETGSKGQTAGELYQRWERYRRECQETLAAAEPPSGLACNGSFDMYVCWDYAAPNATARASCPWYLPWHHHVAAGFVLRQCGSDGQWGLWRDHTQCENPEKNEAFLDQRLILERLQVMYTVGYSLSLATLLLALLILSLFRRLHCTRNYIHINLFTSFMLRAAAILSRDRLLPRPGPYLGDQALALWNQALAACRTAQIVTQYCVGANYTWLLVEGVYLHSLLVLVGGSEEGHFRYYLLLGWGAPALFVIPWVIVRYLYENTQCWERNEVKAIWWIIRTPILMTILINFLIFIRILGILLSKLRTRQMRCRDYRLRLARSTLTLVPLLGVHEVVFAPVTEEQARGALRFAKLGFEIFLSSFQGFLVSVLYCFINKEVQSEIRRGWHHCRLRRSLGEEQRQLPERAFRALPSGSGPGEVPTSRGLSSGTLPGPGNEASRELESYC

[2] = biological target: human GLP-1 receptor (GLP-1R) (Homo sapiens, UniProt P43220); test: cAMP pharmacological functional assay in presence of casein, hGLP-1R; type: cell-based; conditions: HEK293 cells expressing hGLP-1R, 0.1% Casein, geometric mean; read-out: hGLP1R cAMP Rel EC50 nM (SEM, n)
Chain of human GLP-1 receptor (GLP-1R) (P43220 24-463): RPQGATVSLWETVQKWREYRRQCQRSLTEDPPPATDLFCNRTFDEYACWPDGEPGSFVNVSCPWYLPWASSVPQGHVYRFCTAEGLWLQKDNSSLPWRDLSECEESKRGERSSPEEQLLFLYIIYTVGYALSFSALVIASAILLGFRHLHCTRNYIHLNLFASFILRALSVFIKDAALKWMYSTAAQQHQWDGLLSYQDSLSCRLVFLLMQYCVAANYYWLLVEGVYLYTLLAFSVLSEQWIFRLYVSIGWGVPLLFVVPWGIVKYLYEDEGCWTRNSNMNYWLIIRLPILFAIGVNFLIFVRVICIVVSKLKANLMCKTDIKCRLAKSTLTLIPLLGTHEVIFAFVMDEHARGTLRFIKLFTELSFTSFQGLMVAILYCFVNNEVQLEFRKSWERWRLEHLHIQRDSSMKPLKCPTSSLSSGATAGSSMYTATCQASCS

`CC[C@H](C)[C@H](NC(=O)[C@H](CC(C)C)NC(=O)[C@H](Cc1ccc(O)cc1)NC(=O)[C@@H](CCC(=O)O)NC(=O)[C@@H](NC(=O)[C@H](Cc1ccccc1)NC(=O)[C@H](CCC(=O)O)NC(=O)C(C)(C)NC(=O)[C@H](CCC(N)=O)NC(=O)[C@H](C)NC(=O)[C@H](CCCCNC(=O)COCCOCCNC(=O)COCCOCCNC(=O)CC[C@H](NC(=O)CCCCCCCCCCCCCCCCCCC(=O)O)C(=O)O)NC(=O)[C@H](CCC(=O)O)NC(=O)[C@H](CC(=O)O)NC(=O)[C@H](CC(C)C)NC(=O)[C@](C)(CC(C)C)NC(=O)[C@@H](NC(=O)[C@H](CO)NC(=O)[C@H](CCC(N)=O)NC(=O)[C@H](CC(=O)O)NC(=O)[C@H](CO)NC(=O)[C@@H](NC(=O)[C@](C)(Cc1ccccc1F)NC(=O)[C@@H](NC(=O)CNC(=O)[C@H](CCC(=O)O)NC(=O)C(C)(C)NC(=O)[C@@H](N)Cc1ccc(O)cc1)[C@@H](C)O)[C@@H](C)O)[C@@H](C)CC)[C@@H](C)CC)C(=O)N[C@@H](CCC(=O)O)C(=O)NCC(=O)NCC(=O)N1CCC[C@H]1C(=O)N[C@@H](CO)C(=O)N[C@@H](CO)C(=O)NCC(=O)N[C@@H](C)C(=O)N1CCC[C@H]1C(=O)N1CCC[C@H]1C(=O)N1CCC[C@H]1C(=O)N[C@@H](CO)C(N)=O` [Example 187] (H-Y[Aib]EGT[αMePhe(2-F)]TSDQSI[αMeL]LDEK([AEEA-AEEA-γGlu-C20 diacid])AQ[Aib]EFI[dE]YLIEGGPSSGAPPPS-NH2) was tested, and the EC50 [1] was 0.0371 nM and the EC50 [2] was 0.0577 nM.

`CC[C@H](C)[C@H](NC(=O)[C@H](CC(C)C)NC(=O)[C@H](Cc1ccc(O)cc1)NC(=O)C(C)(C)NC(=O)[C@@H](NC(=O)[C@H](Cc1ccccc1)NC(=O)[C@H](CCC(=O)O)NC(=O)C(C)(C)NC(=O)[C@H](CCC(N)=O)NC(=O)[C@H](C)NC(=O)[C@H](CCCCNC(=O)COCCOCCNC(=O)COCCOCCNC(=O)CC[C@H](NC(=O)CCCCCCCCCCCCCCCCCCC(=O)O)C(=O)O)NC(=O)[C@H](CCC(=O)O)NC(=O)[C@H](CC(=O)O)NC(=O)[C@H](CC(C)C)NC(=O)[C@](C)(CC(C)C)NC(=O)[C@@H](NC(=O)[C@H](CO)NC(=O)[C@H](Cc1cccnc1)NC(=O)[C@H](CC(=O)O)NC(=O)[C@H](CO)NC(=O)[C@@H](NC(=O)[C@](C)(Cc1ccccc1F)NC(=O)[C@@H](NC(=O)CNC(=O)[C@H](CCC(=O)O)NC(=O)C(C)(C)NC(=O)[C@@H](N)Cc1ccc(O)cc1)[C@@H](C)O)[C@@H](C)O)[C@@H](C)CC)[C@@H](C)CC)C(=O)N[C@@H](CCC(=O)O)C(=O)NCC(=O)NCC(=O)N1CCC[C@H]1C(=O)N[C@@H](CO)C(=O)N[C@@H](CO)C(=O)NCC(=O)N[C@@H](C)C(=O)N1CCC[C@H]1C(=O)N1CCC[C@H]1C(=O)N1CCC[C@H]1C(=O)N[C@@H](CO)C(N)=O` [Example 188] (H-Y[Aib]EGT[αMePhe(2-F)]TSD[3Pal]SI[αMeL]LDEK([AEEA-AEEA-γGlu-C20 diacid])AQ[Aib]EFI[Aib]YLIEGGPSSGAPPPS-NH2) was tested, and the EC50 [1] was 0.121 nM and the EC50 [2] was 0.13 nM.

Compound `CC[C@H](C)[C@H](NC(=O)[C@H](CC(C)C)NC(=O)[C@H](Cc1ccc(O)cc1)NC(=O)[C@@H](CCC(=O)O)NC(=O)[C@@H](NC(=O)[C@H](Cc1ccccc1)NC(=O)[C@H](CCC(=O)O)NC(=O)C(C)(C)NC(=O)[C@H](CCC(N)=O)NC(=O)[C@H](C)NC(=O)[C@H](CCCCNC(=O)COCCOCCNC(=O)COCCOCCNC(=O)CC[C@H](NC(=O)CCCCCCCCCCCCCCCCCCC(=O)O)C(=O)O)NC(=O)[C@H](CCC(=O)O)NC(=O)[C@H](CC(=O)O)NC(=O)[C@H](CC(C)C)NC(=O)[C@](C)(CC(C)C)NC(=O)[C@@H](NC(=O)[C@H](CO)NC(=O)[C@H](Cc1cccnc1)NC(=O)[C@H](CC(=O)O)NC(=O)[C@H](CO)NC(=O)[C@@H](NC(=O)[C@](C)(Cc1ccccc1F)NC(=O)[C@@H](NC(=O)CNC(=O)[C@H](CCC(=O)O)NC(=O)C(C)(C)NC(=O)[C@@H](N)Cc1c[nH]cn1)[C@@H](C)O)[C@@H](C)O)[C@@H](C)CC)[C@@H](C)CC)C(=O)N[C@@H](CCC(=O)O)C(=O)NCC(=O)NCC(=O)N1CCC[C@H]1C(=O)N[C@@H](CO)C(=O)N[C@@H](CO)C(=O)NCC(=O)N[C@@H](C)C(=O)N1CCC[C@H]1C(=O)N1CCC[C@H]1C(=O)N1CCC[C@H]1C(=O)N[C@@H](CO)C(N)=O` [Example 190] (H-H[Aib]EGT[αMePhe(2-F)]TSD[3Pal]SI[αMeL]LDEK([AEEA-AEEA-γGlu-C20 diacid])AQ[Aib]EFI[dE]YLIEGGPSSGAPPPS-NH2) has an EC50 [1] of 0.738 nM and an EC50 [2] of 0.0241 nM.

Work on `CC[C@H](C)[C@H](NC(=O)[C@H](CC(C)C)NC(=O)[C@H](Cc1ccc(O)cc1)NC(=O)[C@H](CCC(=O)O)NC(=O)[C@@H](NC(=O)[C@H](Cc1ccccc1)NC(=O)[C@H](C)NC(=O)[C@H](CCC(N)=O)NC(=O)[C@H](CCC(N)=O)NC(=O)[C@H](C)NC(=O)[C@H](CCCCNC(=O)COCCOCCNC(=O)COCCOCCNC(=O)CC[C@H](NC(=O)CCCCCCCCCCCCCCCCCCC(=O)O)C(=O)O)NC(=O)[C@H](CCC(=O)O)NC(=O)[C@H](CC(=O)O)NC(=O)[C@H](CC(C)C)NC(=O)[C@H](CC(C)C)NC(=O)[C@@H](NC(=O)[C@H](CO)NC(=O)[C@H](Cc1ccc(O)cc1)NC(=O)[C@H](CC(=O)O)NC(=O)[C@H](CO)NC(=O)[C@@H](NC(=O)[C@H](Cc1ccccc1)NC(=O)[C@@H](NC(=O)CNC(=O)[C@H](CCC(=O)O)NC(=O)[C@]1(C)CCCN1C(=O)[C@@H](N)Cc1ccc(O)cc1)[C@@H](C)O)[C@@H](C)O)[C@@H](C)CC)[C@@H](C)CC)C(=O)N[C@@H](CCC(=O)O)C(=O)NCC(=O)NCC(=O)N1CCC[C@H]1C(=O)N[C@@H](CO)C(=O)N[C@@H](CO)C(=O)NCC(=O)N[C@@H](C)C(=O)N1CCC[C@H]1C(=O)N1CCC[C@H]1C(=O)N1CCC[C@H]1C(=O)N[C@@H](CO)C(N)=O` [Example 193] (H-Y[αMeP]EGTFTSDYSILLDEK([AEEA-AEEA-γGlu-C20 diacid])AQQAFIEYLIEGGPSSGAPPPS-NH2) yielded an EC50 [1] of 0.336 nM and an EC50 [2] of 0.162 nM.

In the case of `CC[C@H](C)[C@H](NC(=O)[C@H](CC(C)C)NC(=O)[C@H](Cc1ccc(O)cc1)NC(=O)[C@H](CCC(=O)O)NC(=O)[C@@H](NC(=O)[C@H](Cc1ccccc1)NC(=O)[C@H](C)NC(=O)[C@H](Cc1c[nH]cn1)NC(=O)[C@H](CCC(N)=O)NC(=O)[C@H](C)NC(=O)[C@H](CCCCNC(=O)COCCOCCNC(=O)COCCOCCNC(=O)CC[C@H](NC(=O)CCCCCCCCCCCCCCCCCCC(=O)O)C(=O)O)NC(=O)[C@H](CCC(=O)O)NC(=O)[C@H](CC(=O)O)NC(=O)[C@H](CC(C)C)NC(=O)[C@H](CC(C)C)NC(=O)[C@@H](NC(=O)[C@H](CO)NC(=O)[C@H](Cc1ccc(O)cc1)NC(=O)[C@H](CC(=O)O)NC(=O)[C@H](CO)NC(=O)[C@@H](NC(=O)[C@H](Cc1ccccc1)NC(=O)[C@@H](NC(=O)CNC(=O)[C@H](CCC(=O)O)NC(=O)[C@]1(C)CCCN1C(=O)[C@@H](N)Cc1ccc(O)cc1)[C@@H](C)O)[C@@H](C)O)[C@@H](C)CC)[C@@H](C)CC)C(=O)N[C@@H](CCC(=O)O)C(=O)NCC(=O)NCC(=O)N1CCC[C@H]1C(=O)N[C@@H](CO)C(=O)N[C@@H](CO)C(=O)NCC(=O)N[C@@H](C)C(=O)N1CCC[C@H]1C(=O)N1CCC[C@H]1C(=O)N1CCC[C@H]1C(=O)N[C@@H](CO)C(N)=O` [Example 194] (H-Y[αMeP]EGTFTSDYSILLDEK([AEEA-AEEA-γGlu-C20 diacid])AQHAFIEYLIEGGPSSGAPPPS-NH2; N-terminus assumed), the EC50 [1] is reported as 0.423 nM and the EC50 [2] is reported as 0.284 nM.

For `CC[C@H](C)[C@H](NC(=O)[C@H](CC(C)C)NC(=O)[C@H](Cc1ccc(O)cc1)NC(=O)[C@H](CCC(=O)O)NC(=O)[C@@H](NC(=O)[C@H](Cc1ccccc1)NC(=O)[C@H](C)NC(=O)[C@H](CCC(N)=O)NC(=O)[C@H](CCC(N)=O)NC(=O)[C@H](C)NC(=O)[C@H](CCCCNC(=O)COCCOCCNC(=O)COCCOCCNC(=O)CC[C@H](NC(=O)CCCCCCCCCCCCCCCCCCC(=O)O)C(=O)O)NC(=O)[C@H](CCCNC(=N)N)NC(=O)[C@H](CC(=O)O)NC(=O)[C@H](CC(C)C)NC(=O)[C@H](CC(C)C)NC(=O)[C@@H](NC(=O)[C@H](CO)NC(=O)[C@H](Cc1ccc(O)cc1)NC(=O)[C@H](CC(=O)O)NC(=O)[C@H](CO)NC(=O)[C@@H](NC(=O)[C@H](Cc1ccccc1)NC(=O)[C@@H](NC(=O)CNC(=O)[C@H](CCC(=O)O)NC(=O)[C@]1(C)CCCN1C(=O)[C@@H](N)Cc1ccc(O)cc1)[C@@H](C)O)[C@@H](C)O)[C@@H](C)CC)[C@@H](C)CC)C(=O)N[C@@H](CCC(=O)O)C(=O)NCC(=O)NCC(=O)N1CCC[C@H]1C(=O)N[C@@H](CO)C(=O)N[C@@H](CO)C(=O)NCC(=O)N[C@@H](C)C(=O)N1CCC[C@H]1C(=O)N1CCC[C@H]1C(=O)N1CCC[C@H]1C(=O)N[C@@H](CO)C(N)=O` [Example 195] (H-Y[αMeP]EGTFTSDYSILLDRK([AEEA-AEEA-γGlu-C20 diacid])AQQAFIEYLIEGGPSSGAPPPS-NH2), the EC50 [1] was 0.193 nM and the EC50 [2] was 0.0966 nM.
